# Data as given in PMC6079014, “Calcium is an essential cofactor for metal efflux by the ferroportin transporter family” (Nature Communications, 2018).
# Like-named read-outs stand apart in the source and are kept apart here.
# Assays:
# wild type BbFpn = wild type BbFpn (Bdellovibrio bacteriovorus, UniProt Q6MLJ0); assay: biochemical; format: binding, Bdellovibrio bacteriovorous
# human Fpn = biological target: T1, human Fpn (Homo sapiens, UniProt Q9NP59); assay: Radiotracer metal efflux assay in Xenopus oocytes expressing human Fpn; format: cell-based; conditions: for Ability of other alkaline-earth metals to substitute for Ca2+ in activating 55Fe efflux: Ca2+-free media, 2 mM Sr or Ba plus 1 mM Mg2+, or 3 mM Mg2+; for Effect on 55Fe efflux of pharmacologically raising the cytosolic Ca2+ concentration: 1 µM ionomycin (IMN) or 2 µM thapsigargin (THG), media with 0.2% DMSO
# T1 construct: expressed in transfected cells; host or cells: Xenopus laevis oocytes injected with Fpn RNA
# T1 sequence (Q9NP59 1-571): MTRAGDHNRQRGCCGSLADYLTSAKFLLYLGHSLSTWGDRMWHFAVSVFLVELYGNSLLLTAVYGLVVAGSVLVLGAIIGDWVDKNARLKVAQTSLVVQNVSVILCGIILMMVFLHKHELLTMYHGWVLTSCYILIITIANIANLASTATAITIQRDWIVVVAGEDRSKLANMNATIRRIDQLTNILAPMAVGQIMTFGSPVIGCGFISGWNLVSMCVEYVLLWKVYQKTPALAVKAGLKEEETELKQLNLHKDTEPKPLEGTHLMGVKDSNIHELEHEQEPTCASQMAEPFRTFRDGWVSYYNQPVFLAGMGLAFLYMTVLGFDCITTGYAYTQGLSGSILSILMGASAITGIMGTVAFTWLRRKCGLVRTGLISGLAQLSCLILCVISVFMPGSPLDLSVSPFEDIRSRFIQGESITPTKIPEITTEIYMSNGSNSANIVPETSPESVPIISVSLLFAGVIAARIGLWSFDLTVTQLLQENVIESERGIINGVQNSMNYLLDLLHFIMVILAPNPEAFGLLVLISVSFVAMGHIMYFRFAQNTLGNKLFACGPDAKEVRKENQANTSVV
# Description: We performed laparotomy and ovariectomy on adult female Xenopus laevis frogs (Nasco, Fort Atkinson, WI) under 2-aminoethylbenzoate methanesulfonate anesthesia (0.2%, by immersion, to effect) following a protocol approved by the University of Cincinnati Institutional Animal Care and Use Committee. Ovarian tissue was isolated and treated for 3 h with […] collagenase A (Roche Diagnostics Corp., Indianapolis, IN) in calcium-free-modified Barths’ medium (MBM) of composition 88 mM NaCl, 1 mM KCl, 2.4 mM NaHCO3, 1.57 mM MgSO4, 0.66 mM NaNO3, 10 mM 4-(2-hydroxyethyl)-1-piperazineethanesulfonic acid (HEPES), buffered to pH 7.5 by using 2-amino-2-hydroxymethyl-propane-1,3-diol (Tris base). We isolated defolliculate stage V–VI oocytes stored at 17 °C in MBM of composition 88 mM NaCl, 1 mM KCl, 2.4 mM NaHCO3, 0.82 MgSO4, 0.75 mM CaCl2, 0.66 mM NaNO3, 10 mM HEPES, buffered to pH 7.5 by using Tris base, with 50 mg l^−1 ciprofloxacin. We expressed in Xenopus oocytes the 1A transcript form of human Fpn fused at its C-terminus with the enhanced green fluorescent protein (GFP) as described. Oocytes were injected with ∼50 ng of Fpn RNA and incubated for 4–6 days before being used in functional assays. Control oocytes were noninjected.
# We measured metal efflux from oocytes expressing Fpn by using a radiotracer assay. Radiochemicals ^55Fe, ^45Ca, ^57Co, ^65Zn were obtained from Perkin-Elmer Life Science Products (Boston, MA) and ^63Ni from the National Isotope Development Center (Oak Ridge, TN). We used ^55Fe (added as FeCl3) at final specific activity 0.4–2.0 GBq mg^−1, ^45Ca (added as CaCl2) at final specific activity 0.5–0.9 GBq mg^−1, ^57Co (added as CoCl2) at final specific activity 1.6 GBq mg^−1, ^65Zn (added as ZnCl2) at final specific activity 0.2 GBq mg^−1, and ^63Ni (added as NiCl2) at final specific activity 0.6 GBq mg^−1. Oocytes were injected with 50 nl of 5 μM metal radionuclide (*M) in vehicle of composition 250 mM KCl, 5 mM nitrilotriacetic acid, trisodium salt, buffered to pH 7.0 with ∼4 mM 2-(N-morpholino)ethanesulfonic acid (MES) (GFS Chemicals, Columbus, OH). After injection, oocytes were briefly stored in ice-cold MBM (for 1–5 min) prior to the start of the efflux assay.
# To initiate the efflux assay, we placed oocytes in standard efflux medium of composition 100 mM NaCl, 1 mM KCl, 2 mM CaCl2, 1 mM MgCl2, 0.5 mM bathophenanthroline disulfonic acid (BPS), 1 mM nitrilotriacetic acid (NTA) trisodium salt, 50 μg/ml apotransferrin (ApoTf) (R&D Systems Inc., Minneapolis, MN), buffered with 0–5 mM MES, and 0–5 mM N′,N′-diethylpiperazine to obtain pH 7.5, with the following exceptions. To prepare Ca^2+-free medium, we replaced 2 mM CaCl2 with 4 mM NaCl and added 1 mM ethylene glycol-bis(2-aminoethyl ether)-N,N,N′,N′-tetraacetic acid (EGTA). To prepare Mg^2+-free medium, we replaced […] MgCl2 with 4 mM NaCl and added 1 mM ethylenediaminetetraacetic acid (EDTA). To measure ^55Fe efflux as a function of extracellular [Ca^2+] over the range 0.1–20 mM Ca^2+ (Figs. 1c, 6b), we adjusted [NaCl] and [CaCl2] on a 2:1 molar basis without the addition of EGTA. Oocytes were then transferred individually in 200 µl of medium to flat-bottomed wells of a 96-well plate and incubated 30 min—within the linear phase of metal efflux[10] —at 23–27 °C with gentle rocking. To terminate efflux, we removed 150 µl of medium (0.75 × [N0–Nt]) from each well for liquid-scintillation counting in Ultima Gold liquid-scintillation cocktail (Perkin-Elmer, Waltham, MA). The corresponding oocytes were rinsed twice in ice-cold medium (without BPS), solubilized with 5% (w/v) sodium dodecyl sulfate, and counted (Nt). We fit our data for oocyte radiotracer content (N) over time (Eq. (1)) and obtained the first-order rate constant (k) for metal radionuclide (*M) efflux for individual oocytes. N0 and Nt are counts per min (cpm) in the oocyte at time = 0 and time = t, respectively.1 Nt=N0⋅exp(-k⋅t) […]
# BbFpn Q84E = BbFpn Q84E (Bdellovibrio bacteriovorus, UniProt Q6MLJ0, Q84E); assay: Isothermal titration calorimetry, Q84E BbFpn; format: binding, Bdellovibrio bacteriovorous
# BbFpn Q84E, sequence (Q6MLJ0 whole entry Q84E): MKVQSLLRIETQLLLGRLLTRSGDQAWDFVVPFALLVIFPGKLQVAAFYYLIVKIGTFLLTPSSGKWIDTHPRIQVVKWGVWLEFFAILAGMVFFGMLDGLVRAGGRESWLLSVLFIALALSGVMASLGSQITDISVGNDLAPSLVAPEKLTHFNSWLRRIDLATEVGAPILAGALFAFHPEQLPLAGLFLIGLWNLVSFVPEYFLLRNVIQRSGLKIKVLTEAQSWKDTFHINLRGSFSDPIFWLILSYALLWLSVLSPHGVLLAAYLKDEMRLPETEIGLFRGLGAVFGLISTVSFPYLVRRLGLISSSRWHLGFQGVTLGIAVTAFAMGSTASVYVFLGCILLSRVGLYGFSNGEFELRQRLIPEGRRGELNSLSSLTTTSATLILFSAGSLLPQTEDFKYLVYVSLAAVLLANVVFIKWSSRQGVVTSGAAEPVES
# BbFpn D24A = BbFpn D24A (Bdellovibrio bacteriovorus, UniProt Q6MLJ0, D24A); assay: Isothermal titration calorimetry, D24A BbFpn; format: binding, Bdellovibrio bacteriovorous
# BbFpn D24A, sequence (Q6MLJ0 whole entry D24A): as the sequence (Q6MLJ0 whole entry Q84E) above, with D24A, E84Q counted along it
# BbFpn E203A = BbFpn E203A (Bdellovibrio bacteriovorus, UniProt Q6MLJ0, E203A); assay: Isothermal titration calorimetry, E203A BbFpn; format: binding, Bdellovibrio bacteriovorous
# BbFpn E203A, sequence (Q6MLJ0 whole entry E203A): as the sequence (Q6MLJ0 whole entry Q84E) above, with E84Q, E203A counted along it
# BbFpn N196A = BbFpn N196A (Bdellovibrio bacteriovorus, UniProt Q6MLJ0, N196A); assay: Isothermal titration calorimetry, N196A BbFpn; format: binding, Bdellovibrio bacteriovorous
# BbFpn N196A, sequence (Q6MLJ0 whole entry N196A): as the sequence (Q6MLJ0 whole entry Q84E) above, with E84Q, N196A counted along it
# [1] = Supplementary Figs. 5 and 9, one experiment
# wild type BbFpn, sequence (Q6MLJ0 whole entry): as the sequence (Q6MLJ0 whole entry Q84E) above, with E84Q counted along it
smiles,measurement,setting,value
[K+] [K^+],Binding to wild type BbFpn by ITC (in words),wild type BbFpn,no observable binding
"[Mg+2] [Mg^2+, magnesium]",Binding to wild type BbFpn by ITC (in words),wild type BbFpn; same experimental conditions as for Ca2+,no observable binding
same,Ability of other alkaline-earth metals to substitute for Ca2+ in activating 55Fe efflux,human Fpn,could not
[Na+] [Na^+],Effect of extracellular Na+ replacement with choline on Fpn-mediated 55Fe efflux,human Fpn; presence or absence of 100 mM extracellular Na+,unaffected
"[Sr+2] [Sr^2+, strontium]",Kd,"wild type BbFpn; 20 °C, 20 mM Tris pH 8, 50 mM NaCl, 0.004% LMNG, read-out: Kd (ITC)",4.6e-05 ± 3.3e-06 M
same,"-TΔS, ITC",wild type BbFpn; [1],-19.2 kcal/mol
same,"N (sites), ITC",wild type BbFpn; [1],0.478 ± 6.1e-2
same,"ΔG, ITC",wild type BbFpn; [1],-5.83 kcal/mol
same,"ΔH, ITC",wild type BbFpn; [1],13.4 ± 1.90 kcal/mol
same,Kd,"wild type BbFpn; Supplementary Figs. 5 and 9, one experiment, read-out: KD (M), ITC",4.57e-05 M
same,Binding to Q84E BbFpn by ITC (in words),BbFpn Q84E,no Ca^2+ or Sr^2+ binding
same,Binding to D24A BbFpn by ITC (in words),BbFpn D24A,complete loss
same,Binding to E203A BbFpn by ITC (in words),BbFpn E203A,complete loss
same,Binding to N196A BbFpn by ITC (in words),BbFpn N196A,complete loss
same,Ability of other alkaline-earth metals to substitute for Ca2+ in activating 55Fe efflux,human Fpn,could partially substitute
[Ba+2] [barium],Ability of other alkaline-earth metals to substitute for Ca2+ in activating 55Fe efflux,human Fpn,could not
"C[C@H](CCC(=O)O)C[C@H](C)C[C@H](C)C(=O)/C=C(\O)[C@H](C)C[C@H](C)C/C=C/[C@@H](C)[C@@H](O)[C@@H](C)[C@@H](O)C[C@@H]1CC[C@@](C)([C@H]2CC[C@@](C)([C@@H](C)O)O2)O1 [ionomycin, reference compound]",Effect on 55Fe efflux of pharmacologically raising the cytosolic Ca2+ concentration,human Fpn,no effect
"C/C=C(/C)C(=O)O[C@H]1C(C)=C2[C@H]([C@@H]1OC(=O)CCCCCCC)[C@@](C)(OC(C)=O)C[C@H](OC(=O)CCC)[C@@]1(O)[C@H]2OC(=O)[C@@]1(C)O [thapsigargin, reference compound]",Effect on 55Fe efflux of pharmacologically raising the cytosolic Ca2+ concentration,human Fpn,no effect
